Assays:
[1] = Intrinsic clearance in human liver microsome; assay type: ADME; details: liver microsomes
[2] = Intrinsic clearance in rat liver microsome; assay type: ADME; details: liver microsomes
[3] = Chemical stability of the compound assessed as half life at pH 1; assay type: physicochemical; details: buffer
[4] = Chemical stability of the compound assessed as half life at pH 10; assay type: physicochemical; details: buffer
[5] = Chemical stability assessed as compound remaining after 1 hr by photolysis assay; assay type: physicochemical; details: read-out: Stability

microsomal CLint [1]: 120 µL/min/mg
microsomal CLint [2]: 95 µL/min/mg
half-life [3]: 278 h
half-life [4]: 24 h
remaining at 1 h [5]: 0%
Structure (SMILES): O=C1CCOc2nc(C#Cc3ccccc3)ccc21

Source: ChEMBL document CHEMBL1681659, “Discovery of novel positive allosteric modulators of the metabotropic glutamate receptor 5 (mGlu5)” (Bioorg Med Chem Lett, 2011)
